According to the supplement of paper PMC11208160:
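Note: IS621 bridge recombinase in Escherichia coli cells against a fixed T5 target plasmid.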

Assay: recombinant UMI read abundance after kanamycin selection (control-corrected) (log10(CPM+1)); higher = more efficient recombination; extreme values may be limits of the assay; sequences stand for … in AGTGCAGAGAAAATCGGCCAGTTTTCTCTGCCTGCAGTCCGCATGCCGTGGGACCCCTTGGGTTCTAACCTGTTGCCTAGATTTATGCAGCGGACTGCCTTTCTCCCAAAGTGATAAACCGG…AGGTTGGTTTCACT; site = the 11-nt donor
How it was run: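 After plating on IPTG (0.07 mM) plus kanamycin, or unselected, in two replicates, recombinant UMIs were PCR-amplified across the donor–target junction and sequenced. The cells were Escherichia coli co-electroporated with a UMI-tagged donor and donor-binding-loop pair library and a target plasmid with a fixed target and T7-inducible IS621 bridge recombinase. Values are log10(CPM+1), with CPM averaged over replicates and scaled by control-derived factors.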
In the case of “TTACAATCATGGACCGGTTTTCCCGGTAATCCGTATTTGGG (site TTACAATCTCC)”, the “recombinant UMI read abundance (log10)” value is reported as 0.
For “TTACATTCATGGACCGGTTTTCCCGGTAATCCGTATTTGAC (site TTACATTCTGT)”, the “recombinant UMI read abundance (log10)” value was 1.68.
With “TTACCATCATGGACCGGTTTTCCCGGTAATCCGTATTTGAC (site TTACCATCTGT)” the “recombinant UMI read abundance (log10)” value was 2.16.
In the case of “TTACCTTCATGGACCGGTTTTCCCGGTAATCCGTATTTGTC (site TTACCTTCTGA)”, the “recombinant UMI read abundance (log10)” value is reported as 0.519.
In the case of “TTAGAAACATGGACCGGTTTTCCCGGTAATCCGTATTTGAT (site TTAGAAACTAT)”, the “recombinant UMI read abundance (log10)” value is reported as 2.51.
For “TTAGAGGCATGGACCGGTTTTCCCGGTAATCCGTATTTGGA (site TTAGAGGCTTC)”, the “recombinant UMI read abundance (log10)” value was 0.701.
For “TTAGATGCATGGACCGGTTTTCCCGGTAATCCGTATTTGTG (site TTAGATGCTCA)”, the “recombinant UMI read abundance (log10)” value was 1.52.
With “TTAGATGCATGGACCGGTTTTCCCGGTAATCCGTATTTGTG (site TTAGCTGCTCA)” the “recombinant UMI read abundance (log10)” value was 0.0227.
For “TTAGATGCATGGACCGGTTTTCCCGGTAATCCGTATTTGTG (site TTAGGTGCTCA)”, the “recombinant UMI read abundance (log10)” value was 0.00706.
With “TTAGATGCATGGACCGGTTTTCCCGGTAATCCGTATTTGTG (site TTAGTTGCTCA)” the “recombinant UMI read abundance (log10)” value was 0.00838.
In the case of “TTAGCCGCATGGACCGGTTTTCCCGGTAATCCGTATTTGTG (site TTAGCAGCTCA)”, the “recombinant UMI read abundance (log10)” value is reported as 0.108.
With “TTAGCCGCATGGACCGGTTTTCCCGGTAATCCGTATTTGTG (site TTAGCCGCTCA)” the “recombinant UMI read abundance (log10)” value was 0.564.
For “TTAGCCGCATGGACCGGTTTTCCCGGTAATCCGTATTTGTG (site TTAGCGGCTCA)”, the “recombinant UMI read abundance (log10)” value was 0.0427.
For “TTAGCCGCATGGACCGGTTTTCCCGGTAATCCGTATTTGTG (site TTAGCTGCTCA)”, the “recombinant UMI read abundance (log10)” value was 0.00693.
For “TTAGCTCCATGGACCGGTTTTCCCGGTAATCCGTATTTGTG (site TTAGCTACTCA)”, the “recombinant UMI read abundance (log10)” value was 0.00349.
For “TTAGCTCCATGGACCGGTTTTCCCGGTAATCCGTATTTGTG (site TTAGCTCCTCA)”, the “recombinant UMI read abundance (log10)” value was 0.0123.
In the case of “TTAGCTCCATGGACCGGTTTTCCCGGTAATCCGTATTTGTG (site TTAGCTGCTCA)”, the “recombinant UMI read abundance (log10)” value is reported as 0.00795.
With “TTAGCTCCATGGACCGGTTTTCCCGGTAATCCGTATTTGTG (site TTAGCTTCTCA)” the “recombinant UMI read abundance (log10)” value was 0.0128.
For “TTAGCTGCATGGACCGGTTTTCCCGGTAATCCGTATTTGAG (site TTAGCTGCTCA)”, the “recombinant UMI read abundance (log10)” value was 0.025.
With “TTAGCTGCATGGACCGGTTTTCCCGGTAATCCGTATTTGAG (site TTAGCTGCTCC)” the “recombinant UMI read abundance (log10)” value was 0.0699.
With “TTAGCTGCATGGACCGGTTTTCCCGGTAATCCGTATTTGAG (site TTAGCTGCTCG)” the “recombinant UMI read abundance (log10)” value was 0.0144.
With “TTAGCTGCATGGACCGGTTTTCCCGGTAATCCGTATTTGAG (site TTAGCTGCTCT)” the “recombinant UMI read abundance (log10)” value was 0.839.
For “TTAGCTGCATGGACCGGTTTTCCCGGTAATCCGTATTTGCG (site TTAGCTGCTCA)”, the “recombinant UMI read abundance (log10)” value was 0.00643.
In the case of “TTAGCTGCATGGACCGGTTTTCCCGGTAATCCGTATTTGCG (site TTAGCTGCTCC)”, the “recombinant UMI read abundance (log10)” value is reported as 0.0194.
For “TTAGCTGCATGGACCGGTTTTCCCGGTAATCCGTATTTGCG (site TTAGCTGCTCG)”, the “recombinant UMI read abundance (log10)” value was 1.41.
For “TTAGCTGCATGGACCGGTTTTCCCGGTAATCCGTATTTGCG (site TTAGCTGCTCT)”, the “recombinant UMI read abundance (log10)” value was 0.00813.
With “TTAGCTGCATGGACCGGTTTTCCCGGTAATCCGTATTTGTA (site TTAGCTGCTAA)” the “recombinant UMI read abundance (log10)” value was 0.0184.
For “TTAGCTGCATGGACCGGTTTTCCCGGTAATCCGTATTTGTA (site TTAGCTGCTCA)”, the “recombinant UMI read abundance (log10)” value was 0.026.
With “TTAGCTGCATGGACCGGTTTTCCCGGTAATCCGTATTTGTA (site TTAGCTGCTGA)” the “recombinant UMI read abundance (log10)” value was 0.
